According to patent US10711036B2, “MALT1 inhibitors and uses thereof” (Cornell University, priority 2015, dated 2020):
*1 amine or outer side, *2 acyl side, *3 side chain or, on linkers, in order; H or OH if unused. Where a SMILES comes first, the peptide text is derived from it. [ ]: non-standard residue; d: D form. The star is where a group is joined. cisHyp = O=C(O)[C@@H]1C[C@H](O)CN1; Hydrocinnamoyl = O=C(CCc1ccccc1)*; Chg = N[C@H](C(=O)O)C1CCCCC1; Phg = N[C@H](C(=O)O)c1ccccc1; Tle = CC(C)(C)[C@H](N)C(=O)O; αMeP = C[C@@]1(C(=O)O)CCCN1; Pip = O=C(O)[C@@H]1CCCCN1; 3Abz = Nc1cccc(C(=O)O)c1; Cbz = O=C(OCc1ccccc1)*; PhAc = O=C(Cc1ccccc1)*; CO = O=C([*:1])[*:2]; Bz = O=C(c1ccccc1)*; NHPh = c1ccc(N*)cc1; CH2F = FC*

Key:
[1] = molecular target: MALT1 (Homo sapiens (Human), UniProt Q9UDY8); experiment: Inhibition constants (Ki) for inhibition of MALT1; format: biochemical; settings: 100 nM MALT1 used for the assay
Protocol: For exemplary compounds of the disclosure, Ki for inhibition of MALT1 was measured (Table E11). A concentration of 100 nM MALT1 was used for the assay.

[2] = system: OCI-LY3; experiment: Cell growth inhibition assay (CellTiter-Glo, 96 hours), OCI-LY3; format: cell-based, human; settings: Homo sapiens, OCI-LY3 cells, treated at t=0 and t=48 hours, ATP luminescence
Protocol: DLBCL cell lines were grown in exponential growth conditions during the 96 hours of treatment. Cells were treated twice: at t=0 and t=48 hours, and cell viability was determined by ATP quantification using a luminescent method ([…]-GLO, Promega, Madison, Wis.). Cell viability in drug-treated cells was normalized to vehicle controls (fractional viability) and results are given as 1-fractional viability.
Experiments were Performed in Triplicate.

Sequence of MALT1 (Q9UDY8 whole entry): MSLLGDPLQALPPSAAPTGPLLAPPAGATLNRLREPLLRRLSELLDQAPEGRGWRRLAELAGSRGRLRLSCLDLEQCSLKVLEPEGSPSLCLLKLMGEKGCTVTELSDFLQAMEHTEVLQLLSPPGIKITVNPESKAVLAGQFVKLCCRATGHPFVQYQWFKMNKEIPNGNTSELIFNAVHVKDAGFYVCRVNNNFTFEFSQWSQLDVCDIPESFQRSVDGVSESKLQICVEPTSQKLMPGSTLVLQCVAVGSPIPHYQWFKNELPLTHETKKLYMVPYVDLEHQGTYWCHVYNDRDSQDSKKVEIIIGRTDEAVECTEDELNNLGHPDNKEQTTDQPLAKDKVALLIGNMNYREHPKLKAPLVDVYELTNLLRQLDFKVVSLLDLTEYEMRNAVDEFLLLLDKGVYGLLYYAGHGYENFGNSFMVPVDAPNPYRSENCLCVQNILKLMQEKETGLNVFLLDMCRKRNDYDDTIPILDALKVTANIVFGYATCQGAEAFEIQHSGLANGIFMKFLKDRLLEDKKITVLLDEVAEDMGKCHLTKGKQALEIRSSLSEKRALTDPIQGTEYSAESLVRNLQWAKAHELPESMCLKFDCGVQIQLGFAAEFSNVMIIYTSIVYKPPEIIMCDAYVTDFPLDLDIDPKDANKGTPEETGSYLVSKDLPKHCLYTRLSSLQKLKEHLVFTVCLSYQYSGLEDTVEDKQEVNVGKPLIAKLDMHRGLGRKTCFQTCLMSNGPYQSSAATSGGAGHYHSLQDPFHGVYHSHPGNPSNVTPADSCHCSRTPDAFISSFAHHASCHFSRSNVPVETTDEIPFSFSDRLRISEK

Structure (SMILES)	Ki [1] [nM]	GI50 [2] [nM]
CC(C)(C)[C@H](NC(=O)OCc1ccccc1)C(=O)N1CCC[C@H]1C(=O)N[C@@H](CCCNC(=N)N)C(=O)CF [Compound 103] (Cbz-[Tle]-Pro-Arg-CH2F)	43	1440
N=C(N)NCCC[C@H](NC(=O)[C@@H]1CCCN1C(=O)[C@@H](NC(=O)OCc1ccccc1)c1ccccc1)C(=O)CF [Compound 104] (Cbz-[Phg]-Pro-Arg-CH2F)	154	8050
N=C(N)NCCC[C@H](NC(=O)[C@@H]1CCCN1C(=O)[C@@H](NC(=O)OCc1ccccc1)c1cccnc1)C(=O)CF [Compound 105]	55	4260
N=C(N)NCCC[C@H](NC(=O)[C@@H]1CCCN1C(=O)[C@H](NC(=O)OCc1ccccc1)c1cccnc1)C(=O)CF [Compound 106]	146	8430
N=C(N)NCCC[C@H](NC(=O)[C@@H]1CCCCN1C(=O)[C@@H](NC(=O)OCc1ccccc1)C1CCCCC1)C(=O)CF [Compound 108] (Cbz-[Chg]-[Pip]-Arg-CH2F)	37	1330
CC(C)[C@H](NC(=O)OCc1ccccc1)C(=O)N1C[C@@H](O)C[C@H]1C(=O)N[C@@H](CCCNC(=N)N)C(=O)CF [Compound 110] (Cbz-Val-[cisHyp]-Arg-CH2F)	49	1070
CC(C)[C@H](NC(=O)OCc1ccccc1)C(=O)N1CCC[C@@]1(C)C(=O)N[C@@H](CCCNC(=N)N)C(=O)CF [Compound 111] (Cbz-Val-[αMeP]-Arg-CH2F)	158	10500
CC(C)[C@H](NC(=O)c1ccccc1)C(=O)N1CCC[C@H]1C(=O)N[C@@H](CCCNC(=N)N)C(=O)CF [Compound 113] (Bz-Val-Pro-Arg-CH2F)	40	660
CC(C)[C@H](NC(=O)Cc1ccccc1)C(=O)N1CCC[C@H]1C(=O)N[C@@H](CCCNC(=N)N)C(=O)CF [Compound 117] (PhAc-Val-Pro-Arg-CH2F)	42	3370
CC(C)[C@H](NC(=O)Cc1cccc(Br)c1)C(=O)N1CCC[C@H]1C(=O)N[C@@H](CCCNC(=N)N)C(=O)CF [Compound 118]	46	2910
CC(C)[C@H](NC(=O)CCc1ccccc1)C(=O)N1CCC[C@H]1C(=O)N[C@@H](CCCNC(=N)N)C(=O)CF [Compound 119] (Hydrocinnamoyl-Val-Pro-Arg-CH2F)	43	1880
COc1ccccc1C(=O)N[C@H](C(=O)N1CCC[C@H]1C(=O)N[C@@H](CCCNC(=N)N)C(=O)CF)C(C)C [Compound 121]	109	7290
COc1cccc(C(=O)N[C@H](C(=O)N2CCC[C@H]2C(=O)N[C@@H](CCCNC(=N)N)C(=O)CF)C(C)C)c1 [Compound 122]	75	2000
COc1ccc(C(=O)N[C@H](C(=O)N2CCC[C@H]2C(=O)N[C@@H](CCCNC(=N)N)C(=O)CF)C(C)C)cc1 [Compound 123]	50	1670
CC(C)[C@H](NC(=O)c1cnn(C)c1)C(=O)N1CCC[C@H]1C(=O)N[C@@H](CCCNC(=N)N)C(=O)CF [Compound 124]	100	16800
Cc1nc(C(=O)N[C@H](C(=O)N2CCC[C@H]2C(=O)N[C@@H](CCCNC(=N)N)C(=O)CF)C(C)C)cs1 [Compound 125]		9650
CC(C)[C@H](NC(=O)c1ccc(C#N)cc1)C(=O)N1CCC[C@H]1C(=O)N[C@@H](CCCNC(=N)N)C(=O)CF [Compound 126]	60	6660
CC(C)[C@H](NC(=O)c1ccc(N2CCOCC2)cc1)C(=O)N1CCC[C@H]1C(=O)N[C@@H](CCCNC(=N)N)C(=O)CF [Compound 127]	75	> 20000
CC(C)[C@H](NC(=O)c1csc(N2CCOCC2)n1)C(=O)N1CCC[C@H]1C(=O)N[C@@H](CCCNC(=N)N)C(=O)CF [Compound 128]	111	> 20000
CC(C)[C@H](NC(=O)Nc1ccccc1)C(=O)N1CCC[C@H]1C(=O)N[C@@H](CCCNC(=N)N)C(=O)CF [Compound 129] ({NHPh-CO}-Val-Pro-Arg-CH2F)	52	1520
CC(C)[C@H](NS(=O)(=O)c1ccc(Br)cc1)C(=O)N1CCC[C@H]1C(=O)N[C@@H](CCCNC(=N)N)C(=O)CF [Compound 130]		3720
CC(C)[C@H](NC(=O)c1cccc(N2CCOCC2)c1)C(=O)N1CCC[C@H]1C(=O)N[C@@H](CCCNC(=N)N)C(=O)CF [Compound 131]	58	14500
CC(C)[C@H](NC(=O)c1cccc(N2CCN(C)CC2)c1)C(=O)N1CCC[C@H]1C(=O)N[C@@H](CCCNC(=N)N)C(=O)CF [Compound 132]	175	> 20000
CC(=O)Nc1cccc(C(=O)N[C@H](C(=O)N2CCC[C@H]2C(=O)N[C@@H](CCCNC(=N)N)C(=O)CF)C(C)C)c1 [Compound 133] (Ac-[3Abz]VPR-CH2F)	54	> 20000
CC(C)[C@H](NC(=O)c1cccc(C#N)c1)C(=O)N1CCC[C@H]1C(=O)N[C@@H](CCCNC(=N)N)C(=O)CF [Compound 134]	39	3690
